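Protocol summary: plate cells (96-well), add compound at 5 concentrations, incubate 48 h, interpolate endpoints linearly. GI50: concentration for 50% inhibition of growth.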 Active and inactive are the calls of the source. Rule as the data show it: active = GI50 up to about 1.1 µM and inactive = higher.
Assays:
Test in all cases: NCI-60 cell line screen, 48 h
K562 = test system: K562
UACC-257 = test system: UACC-257
OVCAR-4 = test system: OVCAR-4
MDA-MB-231 = test system: MDA-MB-231
UACC-62 = test system: UACC-62
SN12C = test system: SN12C
SW-620 = test system: SW-620
BT-549 = test system: BT-549
SK-MEL-28 = test system: SK-MEL-28
UO-31 = test system: UO-31
MDA-MB-435 = test system: MDA-MB-435
SF-295 = test system: SF-295
TK-10 = test system: TK-10
A549 = test system: A549
NCI/ADR-RES = test system: NCI/ADR-RES
786-0 = test system: 786-0
KM12 = test system: KM12
OVCAR-8 = test system: OVCAR-8
HCT-15 = test system: HCT-15
HCT-116 = test system: HCT-116
COLO 205 = test system: COLO 205
U-251 = test system: U-251
MDA-N = test system: MDA-N
SNB-19 = test system: SNB-19
NCI-H460 = test system: NCI-H460
EKVX = test system: EKVX
HL-60 = test system: HL-60
T47D = test system: T47D
NCI-H522 = test system: NCI-H522
ACHN = test system: ACHN
MOLT-4 = test system: MOLT-4
OVCAR-5 = test system: OVCAR-5
PC-3 = test system: PC-3
DU-145 = test system: DU-145
LOX IMVI = test system: LOX IMVI
SK-MEL-5 = test system: SK-MEL-5
CCRF-CEM = test system: CCRF-CEM
OVCAR-3 = test system: OVCAR-3
HOP-62 = test system: HOP-62
IGROV-1 = test system: IGROV-1
RPMI-8226 = test system: RPMI-8226
NCI-H23 = test system: NCI-H23
A498 = test system: A498
SF-268 = test system: SF-268
HT-29 = test system: HT-29
MCF7 = test system: MCF7
NCI-H226 = test system: NCI-H226
Malme-3M = test system: Malme-3M
RXF 393 = test system: RXF 393
CAKI-1 = test system: CAKI-1
Hs-578T = test system: Hs-578T
SK-MEL-2 = test system: SK-MEL-2
M14 = test system: M14
HOP-92 = test system: HOP-92
SK-OV-3 = test system: SK-OV-3
SNB-75 = test system: SNB-75
SF-539 = test system: SF-539
HCC 2998 = test system: HCC 2998
SR = test system: SR

Compound: O=c1[nH]nc(Cc2ccccc2)n1/N=C/c1ccc(/C=N/n2c(Cc3ccccc3)n[nH]c2=O)cc1
- GI50 (K562): 20.2 µM (inactive)
- GI50 (UACC-257): > 100 µM (inactive)
- GI50 (OVCAR-4): > 100 µM (inactive)
- GI50 (MDA-MB-231): 38.8 µM (inactive)
- GI50 (UACC-62): > 100 µM (inactive)
- GI50 (SN12C): > 100 µM (inactive)
- GI50 (SW-620): > 100 µM (inactive)
- GI50 (BT-549): > 100 µM (inactive)
- GI50 (SK-MEL-28): > 100 µM (inactive)
- GI50 (UO-31): > 100 µM (inactive)
- GI50 (MDA-MB-435): > 100 µM (inactive)
- GI50 (SF-295): 77.3 µM (inactive)
- GI50 (TK-10): 54 µM (inactive)
- GI50 (A549): > 100 µM (inactive)
- GI50 (NCI/ADR-RES): > 100 µM (inactive)
- GI50 (786-0): > 100 µM (inactive)
- GI50 (KM12): > 100 µM (inactive)
- GI50 (OVCAR-8): > 100 µM (inactive)
- GI50 (HCT-15): > 100 µM
- GI50 (HCT-116): > 100 µM (inactive)
- GI50 (COLO 205): > 100 µM (inactive)
- GI50 (U-251): 57.3 µM (inactive)
- GI50 (MDA-N): > 100 µM (inactive)
- GI50 (SNB-19): > 100 µM (inactive)
- GI50 (NCI-H460): > 100 µM (inactive)
- GI50 (EKVX): > 100 µM (inactive)
- GI50 (HL-60): 40.5 µM (inactive)
- GI50 (T47D): > 100 µM (inactive)
- GI50 (NCI-H522): > 100 µM (inactive)
- GI50 (ACHN): > 100 µM (inactive)
- GI50 (MOLT-4): 19.4 µM (inactive)
- GI50 (OVCAR-5): > 100 µM (inactive)
- GI50 (PC-3): > 100 µM (inactive)
- GI50 (DU-145): > 100 µM (inactive)
- GI50 (LOX IMVI): > 100 µM (inactive)
- GI50 (SK-MEL-5): > 100 µM (inactive)
- GI50 (CCRF-CEM): 23.8 µM (inactive)
- GI50 (OVCAR-3): > 100 µM (inactive)
- GI50 (HOP-62): 57.5 µM (inactive)
- GI50 (IGROV-1): > 100 µM (inactive)
- GI50 (RPMI-8226): > 100 µM (inactive)
- GI50 (NCI-H23): > 100 µM (inactive)
- GI50 (A498): > 100 µM (inactive)
- GI50 (SF-268): > 100 µM (inactive)
- GI50 (HT-29): > 100 µM (inactive)
- GI50 (MCF7): > 100 µM (inactive)
- GI50 (NCI-H226): > 100 µM (inactive)
- GI50 (Malme-3M): > 100 µM (inactive)
- GI50 (RXF 393): 35.3 µM (inactive)
- GI50 (CAKI-1): > 100 µM (inactive)
- GI50 (Hs-578T): > 100 µM (inactive)
- GI50 (SK-MEL-2): > 100 µM (inactive)
- GI50 (M14): > 100 µM (inactive)

Compound: O=c1oc2ccccc2cc1-c1cc2ccccn2c1
- GI50 (K562): > 100 µM (inactive)
- GI50 (UACC-257): > 100 µM (inactive)
- GI50 (OVCAR-4): > 100 µM (inactive)
- GI50 (MDA-MB-231): > 100 µM (inactive)
- GI50 (UACC-62): > 100 µM (inactive)
- GI50 (SW-620): > 100 µM (inactive)
- GI50 (BT-549): > 100 µM (inactive)
- GI50 (SK-MEL-28): > 100 µM (inactive)
- GI50 (HOP-92): > 100 µM (inactive)
- GI50 (UO-31): > 100 µM (inactive)
- GI50 (MDA-MB-435): > 100 µM (inactive)
- GI50 (SF-295): > 100 µM (inactive)
- GI50 (TK-10): > 100 µM (inactive)
- GI50 (A549): > 100 µM (inactive)
- GI50 (NCI/ADR-RES): > 100 µM (inactive)
- GI50 (786-0): > 100 µM (inactive)
- GI50 (KM12): > 100 µM (inactive)
- GI50 (OVCAR-8): > 100 µM (inactive)
- GI50 (HCT-15): > 100 µM
- GI50 (HCT-116): > 100 µM (inactive)
- GI50 (COLO 205): > 100 µM (inactive)
- GI50 (U-251): > 100 µM (inactive)
- GI50 (MDA-N): > 100 µM (inactive)
- GI50 (SK-OV-3): > 100 µM (inactive)
- GI50 (SNB-75): > 100 µM (inactive)
- GI50 (SNB-19): > 100 µM (inactive)
- GI50 (NCI-H460): > 100 µM (inactive)
- GI50 (EKVX): > 100 µM (inactive)
- GI50 (HL-60): > 100 µM (inactive)
- GI50 (NCI-H522): > 100 µM (inactive)
- GI50 (ACHN): > 100 µM (inactive)
- GI50 (MOLT-4): > 100 µM (inactive)
- GI50 (OVCAR-5): > 100 µM (inactive)
- GI50 (PC-3): > 100 µM (inactive)
- GI50 (DU-145): > 100 µM (inactive)
- GI50 (LOX IMVI): > 100 µM (inactive)
- GI50 (SK-MEL-5): > 100 µM (inactive)
- GI50 (CCRF-CEM): > 100 µM (inactive)
- GI50 (OVCAR-3): > 100 µM (inactive)
- GI50 (HOP-62): > 100 µM (inactive)
- GI50 (IGROV-1): > 100 µM (inactive)
- GI50 (RPMI-8226): > 100 µM (inactive)
- GI50 (NCI-H23): > 100 µM (inactive)
- GI50 (A498): > 100 µM (inactive)
- GI50 (SF-268): > 100 µM (inactive)
- GI50 (HT-29): > 100 µM (inactive)
- GI50 (MCF7): 0.5 µM (active)
- GI50 (NCI-H226): > 100 µM (inactive)
- GI50 (RXF 393): > 100 µM (inactive)
- GI50 (CAKI-1): > 100 µM (inactive)
- GI50 (Hs-578T): > 100 µM (inactive)
- GI50 (SK-MEL-2): > 100 µM (inactive)
- GI50 (M14): > 100 µM (inactive)

Compound: CCN(CC)Cc1cc(Nc2ccnc3ccc4c(nnn4C)c23)ccc1O
- GI50 (K562): 5.24 µM (inactive)
- GI50 (UACC-257): 14.8 µM (inactive)
- GI50 (OVCAR-4): 7.6 µM (inactive)
- GI50 (MDA-MB-231): 17.2 µM (inactive)
- GI50 (UACC-62): 15 µM (inactive)
- GI50 (SN12C): 6.1 µM (inactive)
- GI50 (BT-549): 18.8 µM (inactive)
- GI50 (SK-MEL-28): 3.98 µM (inactive)
- GI50 (SF-539): 5.33 µM (inactive)
- GI50 (HCC 2998): 1.75 µM (inactive)
- GI50 (UO-31): 6.62 µM (inactive)
- GI50 (SF-295): 12.7 µM (inactive)
- GI50 (TK-10): 21.5 µM (inactive)
- GI50 (A549): 12.2 µM (inactive)
- GI50 (NCI/ADR-RES): 19 µM (inactive)
- GI50 (786-0): 7.14 µM (inactive)
- GI50 (KM12): 14.9 µM (inactive)
- GI50 (OVCAR-8): 16.1 µM (inactive)
- GI50 (HCT-15): 3.67 µM
- GI50 (HCT-116): 4.93 µM (inactive)
- GI50 (COLO 205): 6.7 µM (inactive)
- GI50 (MDA-N): 11.5 µM (inactive)
- GI50 (SK-OV-3): 14.1 µM (inactive)
- GI50 (SR): 4.13 µM (inactive)
- GI50 (SNB-75): 5.89 µM (inactive)
- GI50 (SNB-19): 5.55 µM (inactive)
- GI50 (NCI-H460): 3.42 µM (inactive)
- GI50 (EKVX): 26.7 µM (inactive)
- GI50 (HL-60): 9.89 µM (inactive)
- GI50 (T47D): 23.9 µM (inactive)
- GI50 (NCI-H522): 16.2 µM (inactive)
- GI50 (ACHN): 2.81 µM (inactive)
- GI50 (MOLT-4): 3.86 µM (inactive)
- GI50 (OVCAR-5): 11.1 µM (inactive)
- GI50 (PC-3): 6.82 µM (inactive)
- GI50 (DU-145): 13.3 µM (inactive)
- GI50 (LOX IMVI): 11.9 µM (inactive)
- GI50 (SK-MEL-5): 12.7 µM (inactive)
- GI50 (CCRF-CEM): 5.06 µM (inactive)
- GI50 (OVCAR-3): 19.3 µM (inactive)
- GI50 (HOP-62): 4.92 µM (inactive)
- GI50 (IGROV-1): 15.4 µM (inactive)
- GI50 (NCI-H23): 11.5 µM (inactive)
- GI50 (SF-268): 10.2 µM (inactive)
- GI50 (HT-29): 5.56 µM (inactive)
- GI50 (MCF7): 4.03 µM (inactive)
- GI50 (Malme-3M): 13 µM (inactive)
- GI50 (RXF 393): 11.5 µM (inactive)
- GI50 (CAKI-1): 13.5 µM (inactive)
- GI50 (Hs-578T): 15.5 µM (inactive)
- GI50 (SK-MEL-2): 16.1 µM (inactive)
- GI50 (M14): 15.3 µM (inactive)

Reference: ChEMBL document CHEMBL1201862, “PubChem BioAssay data set” (2004)
